Target: T1, ΔF508 CFTR (Mus musculus, UniProt P26361, DEL508-508)
T1 construct: from tissue; host or cells: rectal mucosa of living ΔF508 CF mice (C57Bl6/J), TMAO-treated or water-injected
Assay: Rectal potential difference (RPD) in mice homozygous for ΔF508 CFTR
Type: in vivo
Excerpt: CF mice and rectal potential difference (RPD) measurements. Gene-targeted mice homozygous for the ΔF508 mutation (C57Bl6/J) received Golytely® (Braintree Laboratories, Inc.), a diarrhetic supplement, in the drinking water to increase their lifespan (Clarke, L. L., Gawenis, L. R., Franklin, C. L. & Harline, M. C. (1996) Lab. Anim. Sci. 46, 612-8). To correct the maturation defect of ΔF508 CFTR we used the chemical chaperone trimethylamine oxide (TMAO) (Brown, C. R., Hong-Brown, L. Q., Biwersi, J., Verkman, A. S. & Welch, W. J. (1996) Cell Stress Chaperones 1, 117-25). CF mice were injected with 4 mg/g TMAO from a 4 M stock solution every 8 hours for 24 hours, which is a regimen to partially correct the ΔF508 defect in CF mice (Fischer, H., Barbry, P., Illek, B., Sartori, C., Fukuda, N. & Matthay, M. A. (2001) Am. J. Physiol. 281, L52-L57). Controls were water-injected. The RPD assay was performed on mice that were anesthetized with 0.1 mg/g body weight ketamine and 0.01 mg/g body weight azepromazine. RPD was sensed with a 1 M NaCl agar bridge inserted ˜1 cm into the rectum vs. a subcutaneous needle filled with 1 M NaCl. Measurements were performed in Cl free solution containing 100 μm amiloride and 5 mM Ba(OH)2 to isolate the Cl-selective RPD.
In this Example, it was determined whether L-ascorbic acid affected the functional activation of ΔF508 CFTR in a CF-affected organism in vivo. Using gene-targeted mice homozygous for the ΔF508 mutation it was shown previously that the osmolyte trimethylamine oxide (TMAO) effectively supported ΔF508 CFTR trafficking in vivo (Fischer, H., Barbry, P., Illek, B., Sartori, C., Fukuda, N. & Matthay, M. A. (2001) Am. J. Physiol. 281, L52-L57). Accordingly, the effect of L-ascorbic acid was tested in homozygous ΔF508 CF mice treated with TMAO by using the RPD assay as a functional end point measure for mutant ΔF508-CFTR function. FIG. 24A illustrates that TMAO-treated CF mice manifested a detectable response to a maximal dose of L-ascorbic acid (1 mM) or its epimer D-isoascorbic acid (300 μM) and RPD hyperpolarized on average by −3.2±0.8 mV (n=4) and −3.6±1.8 mV (n=3), respectively (FIG. 24B).

T1 sequence (P26361 with tags, fused parts or gaps DEL508-508): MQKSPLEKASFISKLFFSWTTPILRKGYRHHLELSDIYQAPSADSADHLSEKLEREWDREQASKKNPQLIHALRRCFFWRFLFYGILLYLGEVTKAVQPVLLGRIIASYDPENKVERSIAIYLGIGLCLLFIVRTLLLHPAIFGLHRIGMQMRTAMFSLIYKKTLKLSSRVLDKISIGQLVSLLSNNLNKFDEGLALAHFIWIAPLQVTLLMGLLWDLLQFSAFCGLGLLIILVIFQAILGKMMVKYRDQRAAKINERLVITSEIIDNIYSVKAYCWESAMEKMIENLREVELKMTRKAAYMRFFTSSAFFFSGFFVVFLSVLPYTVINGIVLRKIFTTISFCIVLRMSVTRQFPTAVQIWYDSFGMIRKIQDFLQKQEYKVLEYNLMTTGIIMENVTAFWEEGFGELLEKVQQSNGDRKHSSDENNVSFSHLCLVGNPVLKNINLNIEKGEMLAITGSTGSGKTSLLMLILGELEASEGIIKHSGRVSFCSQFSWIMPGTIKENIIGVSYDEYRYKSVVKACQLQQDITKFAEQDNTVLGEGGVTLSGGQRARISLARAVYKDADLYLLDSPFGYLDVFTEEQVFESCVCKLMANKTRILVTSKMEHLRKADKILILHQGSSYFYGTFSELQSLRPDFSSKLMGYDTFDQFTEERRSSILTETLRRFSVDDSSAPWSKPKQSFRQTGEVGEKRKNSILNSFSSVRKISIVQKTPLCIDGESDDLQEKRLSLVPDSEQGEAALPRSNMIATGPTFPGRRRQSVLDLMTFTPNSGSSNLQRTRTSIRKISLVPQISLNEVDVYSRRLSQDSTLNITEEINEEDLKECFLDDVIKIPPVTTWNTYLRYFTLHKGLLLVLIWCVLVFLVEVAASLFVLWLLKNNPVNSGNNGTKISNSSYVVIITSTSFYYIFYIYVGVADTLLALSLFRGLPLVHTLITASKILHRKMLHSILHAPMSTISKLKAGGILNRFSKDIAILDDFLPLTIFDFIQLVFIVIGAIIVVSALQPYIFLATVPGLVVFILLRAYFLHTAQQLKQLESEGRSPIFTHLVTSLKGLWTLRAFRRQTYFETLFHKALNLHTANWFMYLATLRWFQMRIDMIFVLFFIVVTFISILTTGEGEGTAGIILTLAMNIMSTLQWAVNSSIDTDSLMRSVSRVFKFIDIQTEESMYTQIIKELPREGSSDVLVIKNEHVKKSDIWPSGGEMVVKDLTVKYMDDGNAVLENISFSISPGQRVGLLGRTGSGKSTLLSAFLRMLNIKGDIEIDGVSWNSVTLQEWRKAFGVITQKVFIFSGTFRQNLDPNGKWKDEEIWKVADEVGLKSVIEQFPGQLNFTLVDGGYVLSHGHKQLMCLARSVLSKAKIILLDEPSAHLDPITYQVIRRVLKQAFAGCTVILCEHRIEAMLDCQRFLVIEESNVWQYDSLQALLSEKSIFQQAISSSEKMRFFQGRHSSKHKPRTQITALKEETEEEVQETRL

For `O=C1O[C@H](C(O)CO)C(O)=C1O` (stereo partly drawn) [L-ascorbic acid, L-xyloascorbic acid], the “RPD hyperpolarized on average by” value (CF mice treated with 4 mg/g TMAO for 24 hours, L-ascorbic acid 1 mM, n=4) was −3.2±0.8 mV and the ΔRPD (water-injected control CF mice, L-ascorbic acid or D-isoascorbic acid, n=9) was −1.1±0.4 mV.

Source: patent US8138158B2, “Compositions and methods for therapy for diseases characterized by defective chloride transport” (Children's Hospital & Research Center at Oakland, priority 1997, dated 2012)
